molecular target: T1, protein-protein interaction between SOS1 and KRAS G12C (Homo sapiens, UniProt Q07889); test: KRAS::SOS1 HTRF binding analysis (KRAS G12C/SOS1 binding kit); settings: compound at 0.1 uM
T1 construct: purchased Cisbio 64KRASG12PEG
T1 sequence (Q07889 1-1333): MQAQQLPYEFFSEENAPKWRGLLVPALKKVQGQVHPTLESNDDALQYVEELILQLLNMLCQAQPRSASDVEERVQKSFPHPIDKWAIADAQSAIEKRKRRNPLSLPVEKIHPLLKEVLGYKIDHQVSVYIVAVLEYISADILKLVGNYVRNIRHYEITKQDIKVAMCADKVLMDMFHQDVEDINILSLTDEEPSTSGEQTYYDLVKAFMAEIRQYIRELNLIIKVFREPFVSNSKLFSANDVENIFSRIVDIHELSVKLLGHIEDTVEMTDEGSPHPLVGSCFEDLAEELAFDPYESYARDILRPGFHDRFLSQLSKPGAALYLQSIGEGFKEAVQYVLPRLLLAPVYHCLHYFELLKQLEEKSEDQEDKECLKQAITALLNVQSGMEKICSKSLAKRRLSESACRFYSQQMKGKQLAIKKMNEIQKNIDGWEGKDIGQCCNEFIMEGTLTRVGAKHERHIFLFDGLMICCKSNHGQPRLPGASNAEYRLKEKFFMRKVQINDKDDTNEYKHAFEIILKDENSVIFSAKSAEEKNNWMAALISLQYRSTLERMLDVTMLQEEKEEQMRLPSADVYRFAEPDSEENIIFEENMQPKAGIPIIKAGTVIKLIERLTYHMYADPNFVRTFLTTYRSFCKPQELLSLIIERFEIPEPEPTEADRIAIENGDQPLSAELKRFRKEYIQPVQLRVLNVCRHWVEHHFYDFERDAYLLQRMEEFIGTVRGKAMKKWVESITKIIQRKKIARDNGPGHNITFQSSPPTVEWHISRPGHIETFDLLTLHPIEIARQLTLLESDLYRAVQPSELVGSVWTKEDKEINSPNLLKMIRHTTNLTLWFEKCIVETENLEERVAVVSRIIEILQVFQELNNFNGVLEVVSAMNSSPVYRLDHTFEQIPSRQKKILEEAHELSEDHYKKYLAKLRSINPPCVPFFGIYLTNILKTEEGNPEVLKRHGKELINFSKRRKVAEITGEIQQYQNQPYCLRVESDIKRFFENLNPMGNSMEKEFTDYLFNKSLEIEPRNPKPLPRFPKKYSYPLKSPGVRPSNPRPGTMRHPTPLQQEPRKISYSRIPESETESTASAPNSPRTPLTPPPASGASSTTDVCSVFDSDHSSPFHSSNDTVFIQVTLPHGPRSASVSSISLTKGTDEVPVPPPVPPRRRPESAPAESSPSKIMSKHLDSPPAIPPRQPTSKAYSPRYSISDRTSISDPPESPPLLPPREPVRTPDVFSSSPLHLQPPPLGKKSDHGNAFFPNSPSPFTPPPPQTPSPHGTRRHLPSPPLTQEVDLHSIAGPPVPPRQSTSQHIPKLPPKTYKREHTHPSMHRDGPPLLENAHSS
Procedure: 1-1. KRAS::SOS1 HTRF binding analysis
An SOS1 inhibitory ability of the example compounds of the present invention was confirmed by identifying the effect of inhibiting a protein-protein interaction between SOS1 and KRAS G12C of the compounds according to examples of the present invention.
Specifically, a KRAS G12C/SOS1 binding kit (64KRASG12PEG, Cisbio, France) was purchased and used. 2 µℓ of Tag1-KRAS G12C and 2 µℓ of GTP were premixed and dispensed 4 µl each into a 384 well plate (6007290, PerkinElmer, USA). 2 µℓ of the compound and 4 µℓ of Tag2-SOS1 were placed and then 10 µℓ of premixed Anti-Tag1 XL665 antibody and Anti-Tag2 Tb cryptate antibody was dispensed to each well. The plates were sealed and allowed to react at room temperature for one hour and 40 minutes, and then 665 nm wavelength and 620 nm wavelength were measured using a HTRF® compatible reader (Synergy H4, BioTeK, USA), and the ratio of receptor and donor emission signals for each well was calculated as 665 nm/620 nm×10^4.
(+++: more than 70 to 100% inhibition, ++: more than 40 to 70% inhibition, +: 0 to 40% inhibition) [Table 4]

| inhibition at 0.1 µM [%] | SMILES |
| --- | --- |
| 40 to 70 | C[C@@H](Nc1cnnc2ccc(N3CCC(N(C)C)CC3)cc12)c1cccc(C(F)F)c1F [Example 6, (R)-N-(1-(3-(difluoromethyl)-2-fluorophenyl)ethyl)-6-(4-(dimethylamino)piperidin-1-yl)cinnolin-4-amine] |
| 70 to 100 | C[C@@H](Nc1cnnc2ccc(N3CC4(CN(C)C4)C3)cc12)c1cccc(C(F)F)c1F [Example 7, (R)-N-(1-(3-(difluoromethyl)-2-fluorophenyl)ethyl)-6-(6-methyl-2,6-diazaspiro[3.3]heptan-2-yl)cinnolin-4-amine] |
| 0 to 40 | C[C@@H](Nc1cnnc2ccc(N3CCOCC3)cc12)c1cccc(C(F)F)c1F [Example 10, (R)-N-(1-(3-(difluoromethyl)-2-fluorophenyl)ethyl)-6-morpholinocinnolin-4-amine] |
| 0 to 40 | C[C@@H](Nc1cnnc2ccc(N3CC4CCC(C3)O4)cc12)c1cccc(C(F)F)c1F [Example 16, 6-(8-oxa-3-azabicyclo[3.2.1]octan-3-yl)-N-((R)-1-(3-(difluoromethyl)-2-fluorophenyl)ethyl)cinnolin-4-amine] |
| 0 to 40 | C[C@@H](Nc1cnnc2ccc(N3CCSCC3)cc12)c1cccc(C(F)F)c1F [Example 17, (R)-N-(1-(3-(difluoromethyl)-2-fluorophenyl)ethyl)-6-thiomorpholinocinnolin-4-amine] |
| 70 to 100 | C[C@@H](Nc1cnnc2ccc(N3CCC(O)CC3)cc12)c1cccc(C(F)F)c1F [Example 18, (R)-1-(4-((1-(3-(difluoromethyl)-2-fluorophenyl)ethyl)amino)cinnolin-6-yl)piperidin-4-ol] |
| 40 to 70 | C[C@@H](Nc1cnnc2ccc(N3CCC(C)(O)CC3)cc12)c1cccc(C(F)F)c1F [Example 19, (R)-1-(4-((1-(3-(difluoromethyl)-2-fluorophenyl)ethyl)amino)cinnolin-6-yl)-4-methylpiperidin-4-ol] |
| 0 to 40 | C[C@@H](Nc1cnnc2ccc(N3CCC[C@@H](O)C3)cc12)c1cccc(C(F)F)c1F [Example 20, (R)-1-(4-(((R)-1-(3-(difluoromethyl)-2-fluorophenyl)ethyl)amino)cinnolin-6-yl)piperidin-3-ol] |
| 40 to 70 | C[C@@H](Nc1cnnc2ccc(N3CCC[C@H](O)C3)cc12)c1cccc(C(F)F)c1F [Example 21, (S)-1-(4-(((R)-1-(3-(difluoromethyl)-2-fluorophenyl)ethyl)amino)cinnolin-6-yl)piperidin-3-ol] |
| 0 to 40 | COC1CCN(c2ccc3nncc(N[C@H](C)c4cccc(C(F)F)c4F)c3c2)CC1 [Example 22, (R)-N-(1-(3-(difluoromethyl)-2-fluorophenyl)ethyl)-6-(4-methoxypiperidin-1-yl)cinnolin-4-amine] |
| 0 to 40 | CO[C@@H]1CCCN(c2ccc3nncc(N[C@H](C)c4cccc(C(F)F)c4F)c3c2)C1 [Example 23, N-((R)-1-(3-(difluoromethyl)-2-fluorophenyl)ethyl)-6-((R)-3-methoxypiperidin-1-yl)cinnolin-4-amine] |
| 0 to 40 | CO[C@H]1CCCN(c2ccc3nncc(N[C@H](C)c4cccc(C(F)F)c4F)c3c2)C1 [Example 24, N-((R)-1-(3-(difluoromethyl)-2-fluorophenyl)ethyl)-6-((S)-3-methoxypiperidin-1-yl)cinnolin-4-amine] |
| 0 to 40 | C[C@@H](Nc1cnnc2ccc(N3CC[C@@H](F)C3)cc12)c1cccc(C(F)F)c1F [Example 25, N-((R)-1-(3-(difluoromethyl)-2-fluorophenyl)ethyl)-6-((R)-3-fluoropyrrolidin-1-yl)cinnolin-4-amine] |
| 0 to 40 | C[C@@H](Nc1cnnc2ccc(N3CC[C@H](F)C3)cc12)c1cccc(C(F)F)c1F [Example 26, N-((R)-1-(3-(difluoromethyl)-2-fluorophenyl)ethyl)-6-((S)-3-fluoropyrrolidin-1-yl)cinnolin-4-amine] |
| 40 to 70 | C[C@@H](Nc1cnnc2ccc(N3CC[C@@H](O)C3)cc12)c1cccc(C(F)F)c1F [Example 27, (R)-1-(4-(((R)-1-(3-(difluoromethyl)-2-fluorophenyl)ethyl)amino)cinnolin-6-yl)pyrrolidin-3-ol] |

Further lines, the compound ahead of its results:

| SMILES | inhibition at 0.1 µM [%] |
| --- | --- |
| CC(=O)N1CC=C(c2ccc3nncc(N[C@H](C)c4cccc(C(F)F)c4F)c3c2)CC1 [Example 1, (R)-1-(4-(4-(1-(3-(difluoromethyl)-2-fluorophenyl)ethylamino)cinnolin-6-yl)-5,6-dihydropyridin-1(2H)-yl)ethanone] | 0 to 40 |
| C[C@@H](Nc1cnnc2ccc(C3=CCN(C)CC3)cc12)c1cccc(C(F)F)c1F [Example 3, (R)-N-(1-(3-(difluoromethyl)-2-fluorophenyl)ethyl)-6-(1-methyl-1,2,3,6-tetrahydropyridin-4-yl)cinnolin-4-amine] | 70 to 100 |
| C[C@@H](Nc1cnnc2ccc(C3=CCOCC3)cc12)c1cccc(C(F)F)c1F [Example 4, (R)-N-(1-(3-(difluoromethyl)-2-fluorophenyl)ethyl)-6-(3,6-dihydro-2H-pyran-4-yl)cinnolin-4-amine] | 0 to 40 |
| C[C@@H](Nc1cnnc2ccc(N3CCN(C4COC4)CC3)cc12)c1cccc(C(F)F)c1F [Example 8, (R)-N-(1-(3-(difluoromethyl)-2-fluorophenyl)ethyl)-6-(4-(oxetan-3-yl)piperazin-1-yl)cinnolin-4-amine] | 0 to 40 |
| C[C@@H](Nc1cnnc2ccc(N3CCN4CCOC[C@@H]4C3)cc12)c1cccc(C(F)F)c1F [Example 9, N-((R)-1-(3-(difluoromethyl)-2-fluorophenyl)ethyl)-6-((S)-hexahydropyrazino[2,1-c][1,4]oxazin-8(1H)-yl)cinnolin-4-amine] | 40 to 70 |
| C[C@@H](Nc1cnnc2ccc(N3CC4(COC4)C3)cc12)c1cccc(C(F)F)c1F [Example 11, (R)-N-(1-(3-(difluoromethyl)-2-fluorophenyl)ethyl)-6-(2-oxa-6-azaspiro[3.3]heptan-6-yl)cinnolin-4-amine] | 0 to 40 |
| C[C@@H](Nc1cnnc2ccc(N3CC4CC(C3)O4)cc12)c1cccc(C(F)F)c1F [Example 12, 6-(6-oxa-3-azabicyclo[3.1.1]heptan-3-yl)-N-((R)-1-(3-(difluoromethyl)-2-fluorophenyl)ethyl)cinnolin-4-amine] | 40 to 70 |
| C[C@@H](Nc1cnnc2ccc(N3C[C@H]4C[C@@H]3CO4)cc12)c1cccc(C(F)F)c1F [Example 13, 6-((1R,4R)-2-oxa-5-azabicyclo[2.2.1]heptan-5-yl)-N-((R)-1-(3-(difluoromethyl)-2-fluorophenyl)ethyl)cinnolin-4-amine] | 40 to 70 |
| C[C@@H](Nc1cnnc2ccc(N3C[C@@H]4C[C@H]3CO4)cc12)c1cccc(C(F)F)c1F [Example 14, 6-((1S,4S)-2-oxa-5-azabicyclo[2.2.1]heptan-5-yl)-N-((R)-1-(3-(difluoromethyl)-2-fluorophenyl)ethyl)cinnolin-4-amine] | 0 to 40 |
| C[C@@H](Nc1cnnc2ccc(N3C4CCC3COC4)cc12)c1cccc(C(F)F)c1F [Example 15, 6-(3-oxa-8-azabicyclo[3.2.1]octan-8-yl)-N-((R)-1-(3-(difluoromethyl)-2-fluorophenyl)ethyl)cinnolin-4-amine] | 0 to 40 |

From patent EP4600243A2, “NOVEL BICYCLIC HETEROCYCLYL COMPOUNDS AND USE THEREOF” (Jeil Pharmaceutical Co., Ltd., priority 2022, dated 2024)
